From patent US20070196914A1, “Methods for preparing oil bodies comprising active ingredients” (SemBioSys Genetics Inc., priority 2003, published 2007)

How the values were obtained:
[1] = Partitioning of active into washed safflower oil bodies (free oil / total oil extraction, HPLC or absorbance); assay type: physicochemical, safflower (Carthamus tinctorius); parameters: level of active incorporated into the oil bodies as a percentage of dry weight: concentration or dose not given beside the values; conditions: two-solvent loading, incubated overnight at 34-37° C. (CP 34-42° C.)
Description: Hexane extraction may be used to determine the amount of active present in the free oil (free oil is defined as oil not contained within oil bodies. Note that the intact oil bodies are largely resistant to extraction by hexane alone). (Tzen et al. (1997) J. Biochem 121: 762-768.) Once the free oil has been removed from the active/oil body fraction, an analysis of the total remaining oil may be performed using for example, hexane:isopropanol, chloroform, or chloroform:methanol solution extraction. The amount of active present in both the free oil fraction and the total oil fraction can be determined by a number of methods including, but not limited to, high performance liquid chromatography (HPLC), spectrophotometry, fluorescence, or activity assays depending on the active. By comparing the amount of active in both the free oil fraction and the total oil fraction the average amount of active incorporated into the intact oil bodies can be determined. In general, the efficiency of partitioning of the active into intact oil bodies can range from about 10 to about 99.9%. More typically however the efficiency of partitioning of the active into intact oil bodies will range from about 50 to about 99% and most typically from about 90 to about 99.
Washed safflower oil bodies were prepared as described in example 1. Oil bodies were preserved with 0.1 % Neolone 950 and 0.1 % glycacil L. Clobetasol propionate (CP) (Supplier-Sigma) was weighed (12-30 mg) into a clean and dry 16×100 mm screw-cap Pyrex test tube and mixed with 300 μl of isopropanol then 200 mg of safflower oil. The combined sample was vortexed and subsequently incubated at 34° C. for 20 minutes. After incubation, the sample was re-vortexed then dried under nitrogen for 20 minutes to remove the isopropanol. One ml of washed high dry weight oil bodies were added to the CP/safflower oil mixture at room temperature, centrifuged briefly to pellet contents to allow for thorough mixing, vortexed and further incubated at 34-42° C. overnight in an air tight tube to allow for incorporation of the CP and safflower oil into the oil bodies. A hexane extraction was used to determine the amount of CP present in the free oil (free oil is defined as oil not contained within oil bodies. Note that the intact oil bodies are largely resistant to extraction by hexane alone but all hexane extractions of loaded oil bodies must be corrected for damage done to intact oil bodies by the hexane through corrections using free oil values obtained from unloaded oilbodies). Three ml of hexane are added to the tubes and the tubes are shaken to mix 32 times. The samples are centrifuged in a swinging bucket clinical centrifuge at 3220×g for one minute to separate hexane from the oil body-aqueous phase. Note that the free oil will remain in the hexane layer (top). The hexane layer is removed to another tube and the hexane extraction is repeated on the remaining CP/oil body mixture. Once the majority of the solvent from the second extraction is added to the tube containing the first extract, the hexane containing tube is transferred to a heating block. The hexane was evaporated by subjecting the tubes to a gentle stream of high purity N2 gas while heating the block to 40-45° C. for at least 1.5 hours. Once the free oil was removed from the CP/oil body fraction, an analysis of the total remaining oil was performed. The remaining total oil in intact oil bodies was determined by adding 4 ml of a 3:2 hexane:isopropanol solution (HIP) and shaking to mix vigorously until all of the oil was dissolved in the HIP solvent (about 10-20 seconds). This was followed by the addition of 2.5 ml of 6.67% Na2SO4 (w/v) to the tube and the tube was shaken for another 10 seconds. Phase separation is facilitated by centrifugation for 2 minutes at 3220×g in a swinging bucket clinical centrifuge. The organic or upper phase is removed to a second test tube using a Pasteur pipette while avoiding the transfer of the aqueous phase. […]

[2] = Partitioning of phosphatidylcholine into washed safflower oil bodies (fluorescent tracer); assay type: physicochemical, safflower (Carthamus tinctorius); conditions: average
Method: Washed safflower oil bodies were prepared as described in example 1. Oil bodies were preserved with 0.1% Neolone 950 and 0.1% glycacil L. Phosphatidylcholine (PC, Supplier-Sigma) was weighed (1-300 mg) into a clean and dry 16×100 mm screw-cap Pyrex test tube. A fluorescent tracer (phosphatidic acid, Supplier-Molecular Probes) was added to the PC. The amount used was 0.05-0.25% the weight of the PC of a 1 mg/ml solution of tracer (resuspended following the manufacturer's instructions). 200 ul of isopropanol was added for every 10 mg of PC to dissolve the PC/tracer mixture. Buffer (50 mM NaH2PO4, pH 8.0) was added to the isopropanol mixture using the same buffer (50 mM NaH2PO4, pH 8.0) as the oilbodies were made in. The volume was equivalent to the volume of oilbodies being loaded. The PC/tracer/isopropanol/buffer mixture was sonicated on high for 15-30 seconds. […] Both the wash fractions and the oilbody fractions were assessed for fluorescence quantities after extraction with hexane using a total oil extraction procedure. The total oil extraction was done by adding 4 mls of a 3:2 hexane:isopropanol solution (HIP) to a measured amount of the sample and shaking to mix vigorously until all of the oil was dissolved in the HIP solvent (about 10-20 seconds). […] A known quantity of isopropanol was added to the extracted fractions and the sample was quantitated using a fluorescent spectrophotometer. […]

**Q.** Which results are given for O=C1c2c(O)cccc2Cc2cccc(O)c21 [dithranol, 1,8-Dihydroxy-9(10H)-anthracenone]?
**A.** level of active incorporated into the oil bodies as a percentage of dry weight [1]: 0.253%; average % of the active added that was incorporated into the intact oil bodies [1]: 97.3%

**Q.** For Phosphatidylcholine [PC], which “amount of PC loaded in to the membrane of the oil body, % of the dry weight of the oil body” value ([2]; isopropanol/phosphate buffer pH 8.0, 37° C., without stearylamine) is on record?
**A.** 0.12%

**Q.** What about the “amount of PC loaded in to the membrane of the oil body, % of the dry weight of the oil body” value ([2]; stearylamine included in PC/tracer mixture at approximately 30% of the amount of PC) of the same molecule?
**A.** 1.25%

**Q.** With CCC(=O)O[C@]1(C(=O)CCl)[C@@H](C)C[C@H]2[C@@H]3CCC4=CC(=O)C=C[C@]4(C)[C@@]3(F)[C@@H](O)C[C@@]21C [clobetasol propionate, (11β,16β)-21-chloro-9-fluoro-11-hydroxy-16-methyl-17-(1-oxopropoxy)pregna-1,4-diene-3,20-dione] as the molecule, how does the “level of active incorporated into the oil bodies as a percentage of dry weight” value (“level … as a percentage of dry weight” for short) [1] read?
**A.** 0.316%

**Q.** And the “average % of the active added that was incorporated into the intact oil bodies” value (“average %” below) [1]?
**A.** 94.7%

**Q.** Which “level … as a percentage of dry weight” value [1] does the source give for O=C(O)Cc1ccccc1Nc1c(Cl)cccc1Cl [diclofenac] here?
**A.** 1.36%

**Q.** And the “average %” value [1]?
**A.** 43.9%

**Q.** With CCCCNc1ccc(C(=O)OCCN(C)C)cc1 [tetracaine, 4-(butylamino)-Benzoic acid, 2-(dimethylamino)ethyl ester] as the molecule, how does the “level … as a percentage of dry weight” value [1] read?
**A.** 2.43%

**Q.** And the “average %” value [1]?
**A.** 90.8%
